Experimental findings from US20230183188A1, “ENPP1 MODULATORS AND USES THEREOF” (Vir Biotechnology, Inc., priority 2020, published 2023) are described below.

The structures appear in SMILES notation.

The target in this test is T1, recombinant protein containing the human ENPP1 enzymatic domain (Homo sapiens, UniProt P22413).
T1 construct: recombinant protein containing the human ENPP1 enzymatic domain; purchased R&D Systems 6136-EN-010
T1 sequence (P22413 191-591 limits assumed): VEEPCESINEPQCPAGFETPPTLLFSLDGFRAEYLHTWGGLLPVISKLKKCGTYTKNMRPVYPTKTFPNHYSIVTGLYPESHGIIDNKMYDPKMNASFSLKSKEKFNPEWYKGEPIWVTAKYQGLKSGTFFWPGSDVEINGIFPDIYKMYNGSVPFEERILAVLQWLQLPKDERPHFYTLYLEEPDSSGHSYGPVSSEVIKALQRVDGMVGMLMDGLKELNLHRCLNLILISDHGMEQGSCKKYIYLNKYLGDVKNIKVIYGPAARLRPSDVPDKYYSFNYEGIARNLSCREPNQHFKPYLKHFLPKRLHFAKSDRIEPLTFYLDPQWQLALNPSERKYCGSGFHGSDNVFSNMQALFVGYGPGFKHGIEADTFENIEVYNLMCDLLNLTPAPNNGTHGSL
Description: ENPP1 Enzymatic Inhibition Assay (2′3′-cGAMP substrate, AMP-Glo luminescence). The settings on record: 1 nM ENPP1, 20 uM 2′3′-cGAMP substrate, 30 minutes at 37° C. In kind it is biochemical. Here is the method: The inhibition of ENPP1's phosphodiesterase activity were tested in a purified enzymatic assay using 2′3′-cyclic GAMP as a substrate which allowed for the release of cleaved AMP to be monitored using a luminescent assay.
Putative inhibitors were diluted in assay buffer (50 mM Tris pH 8.0, 250 mM NaCl, 0.5 mM CaCl2, 1 uM ZnCl2, 1% DMSO) and pre-incubated for 15 minutes at 37° C. with recombinant protein containing the human ENPP1 enzymatic domain (R&D Systems cat. #6136-EN-010). The enzymatic reaction was initiated upon addition of the 2′3′-cGAMP substrate. The final reaction concentrations were 1 nM ENPP1 and 20 uM 2′3′-cGAMP substrate in a 25 uL volume. Inhibitor concentrations ranged from 10 uM to 0.2 nM. The reaction was incubated for 30 minutes at 37° C.
After reacting for 30 minutes, the amount of AMP generated from the cleavage of 2′3′-cGAMP was determined using the Promega AMP-Glo method according to the manufacturer's protocol. First, AMP-Glo reagent 1 was added and incubated with the reaction mix for 1 hour at room temperature. Second, AMP Detection solution was added and the mixture was incubated for an additional hour. The luminescence of the mixture was read on a Perkin Elmer Ensight plate reader.
The maximum and minimum levels of ENPP1 activity were established using no inhibitor and no enzyme controls, respectively. The activity observed using ENPP1 inhibitors was quantified as the percent of activity relative to these controls. IC50 values were calculated using GraphPad Prism by fitting a sigmoidal variable slope nonlinear regression model to the data.
As to `COc1ccc2c(Oc3ccc(S4(=O)=NC(=O)CN4)cc3)ccnc2c1` (stereo not drawn) [Compound 8, 1-(4-((7-methoxyquinolin-4-yl)oxy)phenyl)-4,5-dihydro-3H-1λ^6,2,5-thiadiazol-3-one 1-oxide], the IC50 (as a rule, the concentration needed to halve the response being measured) was over 100 nM.
Take `COc1ccc2c(Oc3ccc(S(N)(=O)=NCCO)cc3)ccnc2c1` (stereo not drawn) [Compound 9, N-(2-hydroxyethyl)-4-((7-methoxyquinolin-4-yl)oxy)benzenesulfonimidamide]: the IC50 lay in the range of 10 to 100 nM.
The figure for `COc1ccc2c(Oc3ccc(S(=N)(=O)N4CCN(C)CC4)cc3)ccnc2c1` (stereo not drawn) [Compound 29, 7-methoxy-4-(4-(4-methylpiperazine-1-sulfonimidoyl)phenoxy)quinoline] is 10 to 100 nM; for `COc1ccc2c(Oc3ccc(S(=N)(N)=O)cc3)ccnc2c1` (stereo not drawn) [Compound 30, 4-((7-methoxyquinolin-4-yl)oxy)benzenesulfonimidamide] it is 10 to 100 nM; for `COc1ccc2c(Oc3ccc(S(N)(=O)=NC4CC4)cc3)ccnc2c1` (stereo not drawn) [Compound 21, N′-cyclopropyl-4-((7-methoxyquinolin-4-yl)oxy)benzenesulfonimidamide] it is 10 to 100 nM.
As for `CNS(=N)(=O)c1ccc(Oc2ccnc3cc(OC)ccc23)cc1` (stereo not drawn) [Compound 31, 4-((7-methoxyquinolin-4-yl)oxy)-N′-methylbenzenesulfonimidamide], the IC50 lay within 10 to 100 nM.
For `COc1ccc2c(Oc3ccc(S(N)(=O)=NCCN)cc3)ccnc2c1` (stereo not drawn) [Compound 40, N′-(2-aminoethyl)-4-((7-methoxyquinolin-4-yl)oxy)benzenesulfonimidamide], the IC50 was in the range of 10 to 100 nM.
`COc1ccc2c(Oc3ccc(S(=N)(=O)NC[C@H](O)CO)cc3)ccnc2c1` (single isomer, unassigned) [Compound 46]: the IC50 was under 10 nM.
The figure for `COc1ccc2c(Oc3ccc(S(=N)(=O)N4CCCC4)cc3)ccnc2c1` (stereo not drawn) [Compound 24, 7-methoxy-4-(4-(pyrrolidine-1-sulfonimidoyl)phenoxy)quinoline] is over 100 nM; for `COc1ccc2c(Oc3ccc(S(N)(=O)=NCC(F)(F)F)cc3)ccnc2c1` (stereo not drawn) [Compound 37, 4-((7-methoxyquinolin-4-yl)oxy)-N′-(2,2,2-trifluoroethyl)benzenesulfonimidamide] it is under 10 nM.
On to `COc1ccc2c(Oc3ccc(S(N)(=O)=NC[C@H]4CCCN4)cc3)ccnc2c1` (stereo partly drawn) [Compound 6, 4-((7-methoxyquinolin-4-yl)oxy)-N′-(((R)-pyrrolidin-2-yl)methyl)benzenesulfonimidamide], for which the IC50 was in the range of 10 to 100 nM.
As for `COc1ccc2c(Oc3ccc(S(N)(=O)=NC[C@@H]4CCCN4)cc3)ccnc2c1` (stereo partly drawn) [Compound 44, 4-((7-methoxyquinolin-4-yl)oxy)-N′-(((S)-pyrrolidin-2-yl)methyl)benzenesulfonimidamide], the concentration for half-maximal inhibition (IC50) was 10 to 100 nM.
